Broadly, the AC50 is the concentration giving half of the maximal activity seen. One may read the EC50 as the concentration giving half of the maximal effect. The term IC50 denotes the concentration at which inhibition is half-maximal. What is called Ki is the equilibrium dissociation constant of an inhibitor or competing ligand from its target.

Here are results for 4 compounds from ChEMBL document CHEMBL1201862, “PubChem BioAssay data set” (2004).

Each structure is given as a SMILES string. The source made the active and inactive calls.

A short description of assay [1]: inhibition of ARNT PAS-B/TACC3 complex formation – biochemical, AlphaScreen, cherry-picked samples, confirmation (AID 651703).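 Note: His-tagged ARNT PAS-B domain paired with GST-TACC3 E629A dimer coactivator fragment; potency of inhibitors that break up the complex and lower AlphaScreen signal.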 Format: functional, Homo sapiens.
Assay [2] addresses T1, Zinc finger protein mex-5 (Caenorhabditis elegans, UniProt Q9XUB2).
T1 sequence (Q9XUB2 whole entry): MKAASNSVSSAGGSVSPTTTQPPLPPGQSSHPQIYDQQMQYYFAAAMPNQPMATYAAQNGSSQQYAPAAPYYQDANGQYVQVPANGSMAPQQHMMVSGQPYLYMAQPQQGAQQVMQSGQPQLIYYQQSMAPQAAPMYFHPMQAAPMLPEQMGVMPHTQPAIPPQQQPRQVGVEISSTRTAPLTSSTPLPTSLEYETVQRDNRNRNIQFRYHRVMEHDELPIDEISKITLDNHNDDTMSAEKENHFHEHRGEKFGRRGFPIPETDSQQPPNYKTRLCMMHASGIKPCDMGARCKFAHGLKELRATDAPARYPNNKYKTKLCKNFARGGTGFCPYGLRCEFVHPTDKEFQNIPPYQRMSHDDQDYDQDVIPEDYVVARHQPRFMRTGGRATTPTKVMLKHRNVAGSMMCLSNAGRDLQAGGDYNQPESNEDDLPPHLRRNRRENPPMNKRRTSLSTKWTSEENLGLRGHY
Put plainly: potency of MEX-5 RNA-binding blockers – biochemical, C. elegans, fluorescence polarization, dose response (AID 1960). A general note: Polarisation of emitted light reports the rotation of a fluorescent probe.

A further assay has as its target T2, ORF 73 (Human herpesvirus 8, UniProt O40947).
T2 sequence (O40947 whole entry): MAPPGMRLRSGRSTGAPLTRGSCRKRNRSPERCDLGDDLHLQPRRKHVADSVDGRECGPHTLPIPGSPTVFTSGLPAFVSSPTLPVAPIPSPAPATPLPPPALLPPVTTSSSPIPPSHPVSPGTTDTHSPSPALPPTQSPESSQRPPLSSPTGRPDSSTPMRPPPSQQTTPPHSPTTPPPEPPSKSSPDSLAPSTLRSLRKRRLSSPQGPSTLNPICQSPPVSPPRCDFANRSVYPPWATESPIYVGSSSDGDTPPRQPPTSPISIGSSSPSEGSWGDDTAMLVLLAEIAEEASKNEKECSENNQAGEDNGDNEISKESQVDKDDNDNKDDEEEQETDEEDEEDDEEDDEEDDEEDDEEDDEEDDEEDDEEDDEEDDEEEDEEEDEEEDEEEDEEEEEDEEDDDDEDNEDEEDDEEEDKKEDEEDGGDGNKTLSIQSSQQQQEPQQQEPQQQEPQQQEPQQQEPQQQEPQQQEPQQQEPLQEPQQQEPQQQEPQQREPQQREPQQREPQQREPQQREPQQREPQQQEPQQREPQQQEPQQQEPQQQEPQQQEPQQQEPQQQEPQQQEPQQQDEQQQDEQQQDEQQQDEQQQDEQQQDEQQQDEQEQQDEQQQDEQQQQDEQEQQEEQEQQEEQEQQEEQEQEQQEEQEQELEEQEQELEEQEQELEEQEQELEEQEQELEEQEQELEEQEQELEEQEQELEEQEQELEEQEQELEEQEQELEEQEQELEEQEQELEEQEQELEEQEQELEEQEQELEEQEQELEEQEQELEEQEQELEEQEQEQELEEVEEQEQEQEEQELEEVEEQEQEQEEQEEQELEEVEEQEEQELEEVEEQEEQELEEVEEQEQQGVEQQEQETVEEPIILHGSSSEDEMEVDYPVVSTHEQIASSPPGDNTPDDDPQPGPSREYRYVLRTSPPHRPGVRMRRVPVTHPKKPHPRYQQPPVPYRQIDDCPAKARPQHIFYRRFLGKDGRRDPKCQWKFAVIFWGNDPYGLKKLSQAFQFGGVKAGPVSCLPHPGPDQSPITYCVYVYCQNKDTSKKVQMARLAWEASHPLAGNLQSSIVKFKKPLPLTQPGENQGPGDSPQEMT
The assay is described as follows: KSHV LANA DNA-binding disruption – biochemical, fluorescence polarization, cherry-picked samples, dose response (AID 504725).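 Note: fluorescence polarization of a labeled DNA duplex reporting LANA DNA binding; potency is for inhibitors that block LANA binding to the DNA.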 Further details: species or system Human gammaherpesvirus 8.

Another assay has as its target T3, Protein skinhead-1 (Caenorhabditis elegans, UniProt P34707).
T3 sequence (P34707 whole entry): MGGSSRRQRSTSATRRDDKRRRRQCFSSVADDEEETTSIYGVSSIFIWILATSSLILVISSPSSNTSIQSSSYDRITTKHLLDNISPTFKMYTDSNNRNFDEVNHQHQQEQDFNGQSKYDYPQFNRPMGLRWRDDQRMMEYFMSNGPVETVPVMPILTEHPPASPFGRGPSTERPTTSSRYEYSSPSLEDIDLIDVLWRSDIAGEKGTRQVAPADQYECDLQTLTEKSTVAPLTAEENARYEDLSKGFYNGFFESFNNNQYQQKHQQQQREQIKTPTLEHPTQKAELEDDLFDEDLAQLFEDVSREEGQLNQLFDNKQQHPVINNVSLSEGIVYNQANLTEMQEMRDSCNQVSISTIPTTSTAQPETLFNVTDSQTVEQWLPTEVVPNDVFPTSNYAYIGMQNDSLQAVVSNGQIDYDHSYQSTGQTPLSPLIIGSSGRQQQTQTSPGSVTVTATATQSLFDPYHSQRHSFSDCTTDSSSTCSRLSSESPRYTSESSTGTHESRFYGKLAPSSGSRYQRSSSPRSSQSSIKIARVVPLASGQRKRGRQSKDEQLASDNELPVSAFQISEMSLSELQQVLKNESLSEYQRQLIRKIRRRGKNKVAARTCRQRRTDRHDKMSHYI
It is filed as functional.

The target of the next assay is Caspase-9 (Homo sapiens, UniProt P55211). Put plainly: inhibitors of purified CASP9 protease – biochemical, fluorescence, plate reader, cherry-picked samples, selectivity assay for caspase-6 inhibitor project, dose response (AID 743293).
Chain of Caspase-9 (P55211 1-315 limits assumed): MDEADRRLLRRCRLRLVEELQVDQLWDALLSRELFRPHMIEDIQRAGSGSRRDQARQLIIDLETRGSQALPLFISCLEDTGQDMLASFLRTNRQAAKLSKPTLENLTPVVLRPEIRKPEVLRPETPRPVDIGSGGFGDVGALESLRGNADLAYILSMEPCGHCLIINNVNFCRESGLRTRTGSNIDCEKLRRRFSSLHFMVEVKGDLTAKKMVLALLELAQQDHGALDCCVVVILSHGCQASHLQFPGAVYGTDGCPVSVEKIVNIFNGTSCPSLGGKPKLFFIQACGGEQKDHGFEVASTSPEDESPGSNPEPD
Chain of Caspase-9 (P55211 331-416 limits assumed): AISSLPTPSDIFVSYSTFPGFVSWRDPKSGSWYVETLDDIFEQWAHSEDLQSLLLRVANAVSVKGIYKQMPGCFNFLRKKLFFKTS
For the next assay, the target named is T4, Caspase-7 (Homo sapiens, UniProt P55210).
T4 sequence (P55210 whole entry): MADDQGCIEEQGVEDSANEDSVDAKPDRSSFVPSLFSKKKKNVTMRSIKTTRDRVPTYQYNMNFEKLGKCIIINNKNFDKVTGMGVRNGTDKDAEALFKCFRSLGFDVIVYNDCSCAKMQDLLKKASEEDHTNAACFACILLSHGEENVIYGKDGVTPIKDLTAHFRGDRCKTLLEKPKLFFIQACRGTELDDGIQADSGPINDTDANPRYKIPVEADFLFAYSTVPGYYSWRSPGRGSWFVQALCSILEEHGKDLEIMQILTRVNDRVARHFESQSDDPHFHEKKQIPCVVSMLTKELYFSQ
The assay is described as follows: caspase-7 enzyme inhibition, selectivity check – biochemical, DEVD-R110 fluorescence, cherry-pick, selectivity assay for caspase-6 inhibitor project, dose response (AID 743295). Format: functional.

The target of the next assay is Caspase-8 (Homo sapiens, UniProt Q14790). Put plainly: inhibitors of purified CASP8 protease – biochemical, Z-IETD-R110 fluorescence, cherry-picked samples, selectivity assay for caspase-6 inhibitor project, dose response (AID 743294).
Chain of Caspase-8 (Q14790 217-374 limits assumed): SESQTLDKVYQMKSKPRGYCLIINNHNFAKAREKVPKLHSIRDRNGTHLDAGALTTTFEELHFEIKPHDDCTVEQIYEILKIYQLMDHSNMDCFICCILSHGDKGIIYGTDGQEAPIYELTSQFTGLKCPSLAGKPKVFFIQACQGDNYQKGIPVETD
Chain of Caspase-8 (Q14790 385-479 limits assumed): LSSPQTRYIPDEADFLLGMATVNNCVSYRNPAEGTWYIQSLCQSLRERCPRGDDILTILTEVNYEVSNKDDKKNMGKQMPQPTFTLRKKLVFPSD
Assay [3] deals with Ribosomal protein S6 kinase alpha-3 (Homo sapiens, UniProt P51812). It is filed as functional.
Chain of Ribosomal protein S6 kinase alpha-3 (P51812 whole entry): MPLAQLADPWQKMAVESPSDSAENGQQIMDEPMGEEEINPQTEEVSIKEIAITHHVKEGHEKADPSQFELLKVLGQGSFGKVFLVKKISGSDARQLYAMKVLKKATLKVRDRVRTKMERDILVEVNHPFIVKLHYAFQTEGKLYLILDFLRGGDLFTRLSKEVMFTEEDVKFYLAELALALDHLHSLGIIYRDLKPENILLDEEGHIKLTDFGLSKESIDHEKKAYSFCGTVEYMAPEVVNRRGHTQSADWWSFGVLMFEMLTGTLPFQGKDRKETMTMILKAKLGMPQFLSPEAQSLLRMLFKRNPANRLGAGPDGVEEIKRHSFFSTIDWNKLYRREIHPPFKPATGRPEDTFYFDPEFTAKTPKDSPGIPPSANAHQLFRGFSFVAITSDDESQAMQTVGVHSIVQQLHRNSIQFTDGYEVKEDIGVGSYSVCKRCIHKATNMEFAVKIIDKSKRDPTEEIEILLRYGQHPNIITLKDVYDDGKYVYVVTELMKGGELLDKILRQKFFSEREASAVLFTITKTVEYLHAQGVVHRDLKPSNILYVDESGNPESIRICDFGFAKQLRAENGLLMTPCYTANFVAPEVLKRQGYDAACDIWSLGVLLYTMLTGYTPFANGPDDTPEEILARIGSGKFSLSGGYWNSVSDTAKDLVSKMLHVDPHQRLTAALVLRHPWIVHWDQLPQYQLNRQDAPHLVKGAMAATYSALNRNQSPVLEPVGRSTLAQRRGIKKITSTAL
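Throughout, for Ki: measured within a kinome-wide profiling panel.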

Consider `CCN(CC)CCOc1ccc2c(c1)C(=NNC(=O)c1ccccn1)c1cc(OCCN(CC)CC)ccc1-2`, for which, in assay [1], the concentration at half-maximal activity (AC50) is 109 µM (active).

For `O=C(O)c1ccc2c(c1)[C@@H]1C=CC[C@@H]1[C@H](c1ccccn1)N2`, the half-maximal effective concentration (EC50) in assay [2] was 31.1 µM (inconclusive). In addition, at ORF 73, the AC50 was 21.7 µM (active). In addition, the IC50 on Protein skinhead-1 is > 100 µM (inactive).

For the compound `Oc1nc(Nc2ccc(F)cc2)cc2ccccc12`, the AC50 is 3.04 µM (active) on Caspase-9, 2.11 µM (active) at Caspase-7 and 2.48 µM (active) at Caspase-8.

As for `O=C1Nc2cc(-c3ccc(O)cc3)ccc2C1=Cc1ccc[nH]1`, the Ki in assay [3] is 0.0316 µM (active).
